# Data taken from paper PMC10548512 (Chemical Science, 2023).
# Tested on: H1N1pdm09 virus (A/Netherlands/602/2009) I375F mutant
# Settings: 1 h
structure (smiles),measurement,value
CC[C@H](C)[C@@H]1NC(=O)[C@H](CS)NC(=O)[C@H](CO)NC(=O)[C@H](CCCNC(=N)N)NC(=O)[C@H](CCCNC(=N)N)NC(=O)[C@H](Cc2ccc(O)cc2)NC(=O)[C@H](CCC(N)=O)NC(=O)[C@H](Cc2ccccc2)NC(=O)[C@H](CC(N)=O)NC(=O)[C@H](CC(C)C)NC(=O)[C@@H]2CSC(=N2)c2cc(ccn2)C[C@@H](C(=O)NCC(N)=O)NC(=O)[C@H](CC(N)=O)NC(=O)[C@H](CC(C)C)NC(=O)[C@H]([C@@H](C)CC)NC(=O)[C@H](CC(N)=O)NC(=O)[C@H](CC(C)C)NC1=O [M3],IC50,364 nM
